Assay results published in ChEMBL document CHEMBL1201862, “PubChem BioAssay data set” (2004).
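Exposure lasted 48 hours, with cells grown in 96-well plates and compounds tested at five concentrations. GI50 = concentration required for 50% inhibition of growth.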 The source made the active and inactive calls. No stated cut-off is given here; in the data, active = GI50 up to about 1.1 µM and inactive = higher.

Key:
Test in all cases: NCI-60 cell line screen, 48 h
ACHN = tested on: ACHN
HCC 2998 = tested on: HCC 2998
MDA-MB-435 = tested on: MDA-MB-435
IGROV-1 = tested on: IGROV-1
M14 = tested on: M14
KM12 = tested on: KM12
MDA-N = tested on: MDA-N
DU-145 = tested on: DU-145
MDA-MB-231 = tested on: MDA-MB-231
Malme-3M = tested on: Malme-3M
UO-31 = tested on: UO-31
U-251 = tested on: U-251
RPMI-8226 = tested on: RPMI-8226
LOX IMVI = tested on: LOX IMVI
CAKI-1 = tested on: CAKI-1
NCI-H226 = tested on: NCI-H226
OVCAR-3 = tested on: OVCAR-3
HCT-116 = tested on: HCT-116
NCI-H522 = tested on: NCI-H522
MCF7 = tested on: MCF7

Question: What does the source list for CC(=O)Nc1ccc(/C=C/C(=O)N2CC(CCl)c3c2cc(N)c2ccccc32)cc1 (stereo not given)?
Answer: GI50 (ACHN): < 0.005 µM (active); GI50 (HCC 2998): < 0.005 µM (active); GI50 (MDA-MB-435): 0.00767 µM (active); GI50 (IGROV-1): < 0.005 µM (active); GI50 (M14): < 0.005 µM (active); GI50 (KM12): 0.0064 µM (active); GI50 (MDA-N): 0.00553 µM (active); GI50 (DU-145): < 0.005 µM (active); GI50 (MDA-MB-231): < 0.005 µM (active); GI50 (Malme-3M): < 0.005 µM (active); GI50 (UO-31): < 0.005 µM (active); GI50 (U-251): < 0.005 µM (active); GI50 (RPMI-8226): 0.0149 µM (active); GI50 (LOX IMVI): < 0.005 µM (active); GI50 (CAKI-1): < 0.005 µM (active); GI50 (NCI-H226): < 0.005 µM (active); GI50 (OVCAR-3): 0.0127 µM (active); GI50 (HCT-116): < 0.005 µM (active); GI50 (NCI-H522): < 0.005 µM (active); GI50 (MCF7): < 0.005 µM (active)

Question: Which results are given for CCCCCCCC/C=C\CCCCCCCCNc1ccn(C2OC(COP(=O)(O)OC3CC(n4cc(F)c(=O)[nH]c4=O)OC3CO)C(O)C2O)c(=O)n1 (stereo not given)?
Answer: GI50 (ACHN): 0.0177 µM (active); GI50 (HCC 2998): > 100 µM (inactive); GI50 (MDA-MB-435): 40.8 µM (inactive); GI50 (IGROV-1): > 26.7 µM (inactive); GI50 (M14): 0.315 µM (active); GI50 (KM12): 45 µM (inactive); GI50 (MDA-N): > 55.1 µM (inactive); GI50 (DU-145): 0.159 µM (active); GI50 (MDA-MB-231): > 100 µM (inactive); GI50 (Malme-3M): 13.2 µM (inactive); GI50 (UO-31): 0.198 µM (active); GI50 (U-251): 2.89 µM (inactive); GI50 (RPMI-8226): 0.0509 µM (active); GI50 (LOX IMVI): 0.122 µM (active); GI50 (CAKI-1): 2.09 µM (inactive); GI50 (NCI-H226): > 28.4 µM (inactive); GI50 (OVCAR-3): > 87.5 µM (inactive); GI50 (HCT-116): 0.329 µM (active); GI50 (NCI-H522): > 53.8 µM (inactive); GI50 (MCF7): < 0.0394 µM (active)

Question: Which GI50 (ACHN) does the source give for COc1ccc(-c2cc(C(O)C3CCCCN3)c3ccccc3n2)cc1 (stereo not given) here?
Answer: 11.9 µM (inactive)

Question: What about the GI50 (HCC 2998) of the same molecule?
Answer: 2.19 µM (inactive)

Question: And the GI50 (MDA-MB-435)?
Answer: 3.73 µM (inactive)

Question: What about the GI50 (IGROV-1) of the same molecule?
Answer: 8.45 µM (inactive)

Question: What about the GI50 (M14) of the same molecule?
Answer: 2.14 µM (inactive)

Question: What about the GI50 (KM12) of the same molecule?
Answer: 4.14 µM (inactive)

Question: What about the GI50 (MDA-N) of the same molecule?
Answer: 4.92 µM (inactive)

Question: What about the GI50 (DU-145) of the same molecule?
Answer: 8.39 µM (inactive)

Question: And the GI50 (MDA-MB-231)?
Answer: 2.36 µM (inactive)

Question: What about the GI50 (Malme-3M) of the same molecule?
Answer: 13.6 µM (inactive)

Question: And the GI50 (UO-31)?
Answer: 3.59 µM (inactive)

Question: What about the GI50 (U-251) of the same molecule?
Answer: 3.63 µM (inactive)

Question: And the GI50 (RPMI-8226)?
Answer: 2.33 µM (inactive)

Question: What about the GI50 (LOX IMVI) of the same molecule?
Answer: 2.62 µM (inactive)

Question: And the GI50 (CAKI-1)?
Answer: 5.86 µM (inactive)

Question: What about the GI50 (NCI-H226) of the same molecule?
Answer: 7.06 µM (inactive)

Question: And the GI50 (OVCAR-3)?
Answer: 14.4 µM (inactive)

Question: What about the GI50 (HCT-116) of the same molecule?
Answer: 9.35 µM (inactive)

Question: And the GI50 (NCI-H522)?
Answer: 7.05 µM (inactive)

Question: And the GI50 (MCF7)?
Answer: 3.87 µM (inactive)

Question: With Clc1ncc(C(Cl)(Cl)Cl)nc1-c1ccccc1 as the molecule, how does the GI50 (ACHN) read?
Answer: 1.68 µM (inactive)

Question: What about the GI50 (HCC 2998) of the same molecule?
Answer: 1.52 µM (inactive)

Question: And the GI50 (MDA-MB-435)?
Answer: 1.77 µM (inactive)

Question: And the GI50 (IGROV-1)?
Answer: 2.4 µM (inactive)

Question: What about the GI50 (M14) of the same molecule?
Answer: 2.23 µM (inactive)

Question: And the GI50 (KM12)?
Answer: 1.82 µM (inactive)

Question: And the GI50 (MDA-N)?
Answer: 1.87 µM (inactive)

Question: And the GI50 (DU-145)?
Answer: 1.61 µM (inactive)

Question: And the GI50 (MDA-MB-231)?
Answer: 1.97 µM (inactive)

Question: And the GI50 (Malme-3M)?
Answer: 5.14 µM (inactive)

Question: And the GI50 (UO-31)?
Answer: 1.84 µM (inactive)

Question: And the GI50 (U-251)?
Answer: 1.84 µM (inactive)

Question: And the GI50 (RPMI-8226)?
Answer: 0.598 µM (active)

Question: And the GI50 (LOX IMVI)?
Answer: 4.13 µM (inactive)

Question: And the GI50 (CAKI-1)?
Answer: 2.2 µM (inactive)

Question: And the GI50 (NCI-H226)?
Answer: 18.4 µM (inactive)

Question: And the GI50 (OVCAR-3)?
Answer: 1.72 µM (inactive)

Question: And the GI50 (HCT-116)?
Answer: 1.87 µM (inactive)

Question: And the GI50 (NCI-H522)?
Answer: 2.52 µM (inactive)

Question: What about the GI50 (MCF7) of the same molecule?
Answer: 1.68 µM (inactive)

Question: For Sc1nn2c(COc3cc(Cl)c(OCc4nnc5sc(S)nn45)cc3Cl)nnc2s1, which GI50 (ACHN) is on record?
Answer: 36.1 µM (inactive)

Question: And the GI50 (HCC 2998)?
Answer: 36.1 µM (inactive)

Question: What about the GI50 (MDA-MB-435) of the same molecule?
Answer: 43.9 µM (inactive)

Question: And the GI50 (IGROV-1)?
Answer: 41.6 µM (inactive)

Question: What about the GI50 (M14) of the same molecule?
Answer: > 100 µM (inactive)

Question: And the GI50 (KM12)?
Answer: > 100 µM (inactive)

Question: And the GI50 (MDA-N)?
Answer: 33.6 µM (inactive)

Question: What about the GI50 (DU-145) of the same molecule?
Answer: 78.3 µM (inactive)

Question: And the GI50 (MDA-MB-231)?
Answer: > 100 µM (inactive)

Question: And the GI50 (Malme-3M)?
Answer: 40.1 µM (inactive)

Question: And the GI50 (UO-31)?
Answer: 31.3 µM (inactive)

Question: And the GI50 (U-251)?
Answer: > 100 µM (inactive)

Question: And the GI50 (RPMI-8226)?
Answer: 32.4 µM (inactive)

Question: What about the GI50 (LOX IMVI) of the same molecule?
Answer: 32.8 µM (inactive)

Question: What about the GI50 (CAKI-1) of the same molecule?
Answer: > 100 µM (inactive)

Question: And the GI50 (NCI-H226)?
Answer: > 100 µM (inactive)

Question: And the GI50 (OVCAR-3)?
Answer: 30.5 µM (inactive)

Question: And the GI50 (HCT-116)?
Answer: 46 µM (inactive)

Question: And the GI50 (NCI-H522)?
Answer: 20.1 µM (inactive)

Question: And the GI50 (MCF7)?
Answer: 18.2 µM (inactive)

Question: For CCOC(=O)c1cc(C)nc2c1c(=O)n(-c1ccccc1)c(=O)n2CCCCN1CCN(c2ncccn2)CC1, which GI50 (ACHN) is on record?
Answer: > 100 µM (inactive)

Question: And the GI50 (HCC 2998)?
Answer: > 100 µM (inactive)

Question: And the GI50 (MDA-MB-435)?
Answer: > 100 µM (inactive)

Question: What about the GI50 (IGROV-1) of the same molecule?
Answer: > 100 µM (inactive)

Question: What about the GI50 (M14) of the same molecule?
Answer: > 100 µM (inactive)

Question: What about the GI50 (KM12) of the same molecule?
Answer: > 100 µM (inactive)

Question: And the GI50 (MDA-N)?
Answer: > 100 µM (inactive)

Question: And the GI50 (DU-145)?
Answer: > 100 µM (inactive)

Question: And the GI50 (MDA-MB-231)?
Answer: 80.7 µM (inactive)

Question: What about the GI50 (Malme-3M) of the same molecule?
Answer: > 100 µM (inactive)

Question: And the GI50 (UO-31)?
Answer: 38.5 µM (inactive)

Question: And the GI50 (U-251)?
Answer: > 100 µM (inactive)

Question: What about the GI50 (RPMI-8226) of the same molecule?
Answer: 23.8 µM (inactive)

Question: And the GI50 (LOX IMVI)?
Answer: 56.9 µM (inactive)

Question: And the GI50 (CAKI-1)?
Answer: 23.4 µM (inactive)

Question: What about the GI50 (NCI-H226) of the same molecule?
Answer: > 100 µM (inactive)

Question: What about the GI50 (OVCAR-3) of the same molecule?
Answer: 94 µM (inactive)

Question: What about the GI50 (HCT-116) of the same molecule?
Answer: 85.5 µM (inactive)

Question: What about the GI50 (NCI-H522) of the same molecule?
Answer: > 100 µM (inactive)

Question: What about the GI50 (MCF7) of the same molecule?
Answer: > 100 µM (inactive)

Question: C[C@@H](CC(O)C(O)C(C)(C)O)C1CCC23CC12CCC1[C@@]2(C)CCC(O)C(C)(C)C2CC(OC2OC(CO)C(O)C(O)C2O)[C@]13C (stereo not given in full) was tested. Which GI50 (ACHN) did it give?
Answer: > 10 µM (inactive)

Question: What about the GI50 (HCC 2998) of the same molecule?
Answer: > 10 µM (inactive)

Question: What about the GI50 (MDA-MB-435) of the same molecule?
Answer: > 10 µM (inactive)

Question: What about the GI50 (IGROV-1) of the same molecule?
Answer: > 10 µM (inactive)

Question: What about the GI50 (M14) of the same molecule?
Answer: > 10 µM (inactive)

Question: What about the GI50 (KM12) of the same molecule?
Answer: > 10 µM (inactive)

Question: And the GI50 (MDA-N)?
Answer: > 10 µM (inactive)

Question: And the GI50 (DU-145)?
Answer: > 10 µM (inactive)

Question: What about the GI50 (MDA-MB-231) of the same molecule?
Answer: > 10 µM (inactive)

Question: And the GI50 (Malme-3M)?
Answer: > 10 µM (inactive)

Question: And the GI50 (UO-31)?
Answer: > 10 µM (inactive)

Question: What about the GI50 (U-251) of the same molecule?
Answer: > 10 µM (inactive)

Question: What about the GI50 (RPMI-8226) of the same molecule?
Answer: > 10 µM (inactive)

Question: And the GI50 (LOX IMVI)?
Answer: > 10 µM (inactive)

Question: What about the GI50 (CAKI-1) of the same molecule?
Answer: > 10 µM (inactive)

Question: And the GI50 (NCI-H226)?
Answer: > 10 µM (inactive)

Question: What about the GI50 (OVCAR-3) of the same molecule?
Answer: > 10 µM (inactive)

Question: What about the GI50 (HCT-116) of the same molecule?
Answer: > 10 µM (inactive)

Question: And the GI50 (NCI-H522)?
Answer: > 10 µM (inactive)

Question: What about the GI50 (MCF7) of the same molecule?
Answer: > 10 µM (inactive)
